This note sets out measurements from patent publication US8937064B2, “Pyrazolo[1,5-a]pyrimidines useful as JAK2 inhibitors” (Vertex Pharmaceuticals Incorporated, priority 2007, dated 2015).

For assay [1], the target named is JAK-2 enzyme (Homo sapiens, UniProt O60674). In words: JAK2 Inhibition Assay.
The target of assay [2] is T1, JAK3 (Homo sapiens, UniProt P52333).
T1 sequence (P52333 1-1124): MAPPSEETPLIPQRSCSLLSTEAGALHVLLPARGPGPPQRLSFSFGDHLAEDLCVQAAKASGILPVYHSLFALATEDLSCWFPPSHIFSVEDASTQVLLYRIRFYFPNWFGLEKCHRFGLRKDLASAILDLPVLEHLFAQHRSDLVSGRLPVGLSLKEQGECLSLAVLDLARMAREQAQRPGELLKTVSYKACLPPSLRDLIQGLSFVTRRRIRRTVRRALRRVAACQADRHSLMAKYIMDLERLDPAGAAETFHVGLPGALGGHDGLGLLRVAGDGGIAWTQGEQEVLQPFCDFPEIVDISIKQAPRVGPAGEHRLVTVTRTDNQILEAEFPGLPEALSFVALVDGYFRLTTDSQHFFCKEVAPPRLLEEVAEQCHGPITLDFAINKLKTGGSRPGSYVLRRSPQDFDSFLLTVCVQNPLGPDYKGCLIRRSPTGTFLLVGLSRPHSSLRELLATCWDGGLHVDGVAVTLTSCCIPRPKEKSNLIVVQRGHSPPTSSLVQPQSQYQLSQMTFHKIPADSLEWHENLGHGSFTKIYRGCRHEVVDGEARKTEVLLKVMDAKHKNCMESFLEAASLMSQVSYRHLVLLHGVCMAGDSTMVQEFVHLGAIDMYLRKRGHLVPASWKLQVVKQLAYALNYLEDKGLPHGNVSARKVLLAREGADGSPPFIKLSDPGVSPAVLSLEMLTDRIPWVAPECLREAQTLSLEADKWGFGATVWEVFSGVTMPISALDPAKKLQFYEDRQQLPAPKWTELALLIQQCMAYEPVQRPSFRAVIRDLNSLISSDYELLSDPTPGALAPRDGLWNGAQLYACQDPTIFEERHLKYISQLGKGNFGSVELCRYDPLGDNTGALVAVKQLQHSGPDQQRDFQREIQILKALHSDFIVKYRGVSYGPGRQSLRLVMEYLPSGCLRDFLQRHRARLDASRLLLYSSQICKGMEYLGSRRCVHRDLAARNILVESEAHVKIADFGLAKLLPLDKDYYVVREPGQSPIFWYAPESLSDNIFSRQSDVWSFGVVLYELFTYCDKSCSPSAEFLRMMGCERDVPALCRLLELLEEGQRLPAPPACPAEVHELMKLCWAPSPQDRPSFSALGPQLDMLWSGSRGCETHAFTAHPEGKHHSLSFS
Nature of the assay: JAK3 Inhibition Assay. The class given is biochemical. The conditions noted are these: 1 nM JAK3, 1 μM poly(Glu)4Tyr, 5 μM ATP, 25° C., 33P incorporation.

Chain of JAK-2 enzyme (O60674 whole entry): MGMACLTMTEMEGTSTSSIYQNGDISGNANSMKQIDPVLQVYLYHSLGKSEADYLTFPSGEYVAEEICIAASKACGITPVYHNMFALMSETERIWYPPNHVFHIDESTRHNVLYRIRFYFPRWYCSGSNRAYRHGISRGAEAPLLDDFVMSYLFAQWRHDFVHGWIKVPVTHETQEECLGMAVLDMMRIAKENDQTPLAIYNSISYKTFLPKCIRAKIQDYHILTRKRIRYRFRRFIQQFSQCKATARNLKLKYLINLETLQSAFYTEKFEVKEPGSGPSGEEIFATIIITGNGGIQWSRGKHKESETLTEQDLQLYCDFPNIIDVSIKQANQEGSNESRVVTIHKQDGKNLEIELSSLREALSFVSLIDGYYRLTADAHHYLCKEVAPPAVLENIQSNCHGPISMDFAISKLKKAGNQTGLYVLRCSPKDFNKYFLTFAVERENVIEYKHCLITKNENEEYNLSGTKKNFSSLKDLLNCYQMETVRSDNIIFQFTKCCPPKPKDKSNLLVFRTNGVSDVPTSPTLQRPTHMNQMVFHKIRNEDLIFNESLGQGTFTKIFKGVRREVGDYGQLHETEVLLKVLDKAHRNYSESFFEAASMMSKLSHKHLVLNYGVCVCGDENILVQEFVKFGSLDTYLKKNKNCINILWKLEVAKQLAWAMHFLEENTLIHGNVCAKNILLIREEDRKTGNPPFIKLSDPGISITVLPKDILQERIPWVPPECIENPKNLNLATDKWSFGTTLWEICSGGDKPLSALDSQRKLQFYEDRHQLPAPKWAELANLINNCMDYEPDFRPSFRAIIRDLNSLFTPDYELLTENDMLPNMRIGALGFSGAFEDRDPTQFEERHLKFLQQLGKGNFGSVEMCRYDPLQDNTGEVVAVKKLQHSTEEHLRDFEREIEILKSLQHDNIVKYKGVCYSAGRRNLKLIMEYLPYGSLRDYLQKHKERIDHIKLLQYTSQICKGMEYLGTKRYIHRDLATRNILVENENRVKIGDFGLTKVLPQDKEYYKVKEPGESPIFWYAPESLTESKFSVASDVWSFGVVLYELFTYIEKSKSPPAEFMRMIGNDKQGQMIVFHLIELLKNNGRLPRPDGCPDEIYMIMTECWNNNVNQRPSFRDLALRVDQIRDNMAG

For the molecule `CCC[C@H](Nc1cc(-c2cnn3cccnc23)ncn1)c1ccc(F)cc1F` [Compound 122], the Ki in assay [1] is less than 10 nM; in assay [2] it was 10 to 100 nM.
